Measurements as given in patent US11993571B2, “Indole derivatives as efflux pump inhibitors” (RUTGERS, THE STATE UNIVERSITY OF NEW JERSEY, priority 2017, dated 2024).
Structures can show the parent of a compound that is named as a salt.

How the values were obtained:
[1] = test system: P. aeruginosa [ATCC 27853]; experiment: Mouse septicemia model of infection; format: in vivo, Swiss Webster female mice; conditions: experiment #512, cefepime, 10 mg/ml b.i.d., 250 ul
Experimental: A general method for the in vivo assessment of bacterial EPIs is complicated by the fact that that both the antibiotic and the EPI need to be present for synergy to be achieved. A general method was discovered that has proven to be effective in establishing the relative efficacy of bacterial EPIs in a mouse septicemia model. The bacterial EPI is administered initially intravenously to mice with septicemia, followed 5 minutes later by the intravenous administration or oral administration of the antibiotic. A second administration of the EPI is then administered subcutaneously after an additional 5 minutes to act as a booster, followed by the final administration of the antibiotic either intravenously or orally after the second administration of the EPI. […] In a few instances, a second regiment of both EPI and antibiotic as administered on day 1 was required after 24 hours to affect cures.
Determination of the in vivo efficacy of bacterial efflux pump inhibitors (EPIs) can be efficiently determined using a mouse septicemia model of infection. The systemic infection is initiated by a 500 ul intraperitoneal injection of an inoculum containing bacteria (such as P. aeruginosa [ATCC 27853]) at a concentration of approximately 5×10^5 cells in 5% mucin in Swiss Webster female mice. […]

P. aeruginosa ATCC 27853 = experiment: Intrinsic MIC assay (CLSI broth microdilution); format: cell-based; conditions: Pseudomonas aeruginosa, ATCC27853
Experimental: (§1) MIC assays were conducted in accordance with Clinical and Laboratory Standards Institute (CLSI) guidelines for broth microdilution.
The intrinsic MIC of the experimental EPIs was tested with the method described. The 2-fold serial dilution begins with 100 μg/mL of tested compound in the first column of the 96-well plates. The following Gram-negative bacterial strains were included in these assays: […]

[2] = test system: Pseudomonas aeruginosa ATCC 27853; experiment: Standard EPI assay (MIC of levofloxacin or cefepime in absence and presence of the EPI); format: cell-based; conditions: P. aeruginosa ATCC 27853
Experimental: as §1
(§2) The EPI assay for the purposes of these studies represents a MIC assay in which the MIC of the antibiotic against the bacteria is tested in the presence of an experimental efflux pump inhibitor (EPI). […] Using serial dilutions of the EPI, its enhancement of antibiotic activity was then evaluated. […] For the evaluation of the efficacy of an EPI against bacteria that were pre-exposed to an antibiotic, the inoculum of bacteria that used was developed from a bacterial culture isolated as a single colony following exposure at ½ the MIIC of the antibiotic (so as to induce efflux pump expression), was to be used in combination with the EPI.
In our standard EPI assay, the MIC of the test antibiotic is determined in the absence and presence of sub-inhibitory concentrations of the EPI. Initially, the sub-inhibitory concentration used was ½×MIC of the EPI. […] Similar methodology was employed to examine the synergy with Escherichia coli ATCC 25922 in the presence of varied concentrations of these EPIs using clarithromycin as the antibiotic.

[3] = test system: P. aeruginosa ATCC 27853 pre-exposed to cefepime; experiment: Pre-exposure bacterial EPI assay; format: cell-based, Pseudomonas aeruginosa
Experimental: as §2
The principle underlying this pre-exposure is that exposure of the bacteria to sub-inhibitory concentrations of the test antibiotic will induce expression of efflux pumps, if any, and may represent the scenario in vivo more accurately.

## CC(C)C(N)CC[C@H](N)CNC(=O)c1cc2ccc(-c3ccc(F)cc3)cc2[nH]1 (stereo partly drawn) [Example 6, N-((2S)-2,5-diamino-6-methylheptyl)-6-(4-fluorophenyl)-1H-indole-2-carboxamide dihydrochloride]
[1]; Example 6, 3.0 mg/ml b.i.d.
  % Survival (72 hr) Antibiotic + EPI: 100%
P. aeruginosa ATCC 27853
  MIC: 25 µg/mL
[2]; 6.25 μg/mL of the EPI
  MIC of levofloxacin in the presence of EPI: 0.063 µg/mL
  reduction of the MIC of levofloxacin relative to the absence of EPI: 32 fold
[2]; 12.5 μg/mL of the EPI
  MIC of cefepime in the presence of EPI: 1.0 µg/mL
  decrease of the MIC of cefepime: 2 fold

## NCCC[C@@H](N)CNC(=O)c1cc2ccc(-c3ccc(F)cc3)cc2[nH]1 [Example 20, (R)-5-(6-(4-fluorophenyl)-1H-indole-2-carboxamido)pentane-1,4-diaminium chloride]
[3]; 6.25 μg/mL of the EPI
  MIC of cefepime against cefepime-exposed P. aeruginosa in the presence of EPI: 0.5 µg/mL
  reduction of the MIC of cefepime against cefepime-exposed P. aeruginosa: 8 fold

## CO/N=C(\C(=O)N[C@@H]1C(=O)N2C(C(=O)[O-])=C(C[N+]3(C)CCCC3)CS[C@H]12)c1csc(N)n1 [cefepime, reference compound]
[1]; mice infected with P. aeruginosa
  % Survival (72 hr) Antibiotic Only: 25%
[3]; Pseudomonas aeruginosa, ATCC27853, read-out: MIC of cefepime against P. aeruginosa pre-exposed to cefepime
  MIC: 16 µg/mL

## C[C@H]1COc2c(N3CCN(C)CC3)c(F)cc3c(=O)c(C(=O)O)cn1c23 [levofloxacin, reference compound]
[2]; Pseudomonas aeruginosa, ATCC27853
  MIC: 1 µg/mL
